Reference: US12492188B2, “1H-benzo[D]imidazole derivatives as TLR9 inhibitors for the treatment of fibrosis” (BRISTOL-MYERS SQUIBB COMPANY, priority 2020, dated 2025)
Like-named read-outs stand apart in the source and are kept apart here.

How the values were obtained:
Assay type in all cases: cell-based
human TLR9 = target: T1, human TLR9 (Homo sapiens, UniProt Q9NR96); assay: TLR9 inhibition reporter assay (HEK-Blue cells, secreted embryonic alkaline phosphatase reporter)
T1 construct: host or cells: HEK-Blue cells (HEK293-derived reporter line)
T1 sequence (Q9NR96 26-1032): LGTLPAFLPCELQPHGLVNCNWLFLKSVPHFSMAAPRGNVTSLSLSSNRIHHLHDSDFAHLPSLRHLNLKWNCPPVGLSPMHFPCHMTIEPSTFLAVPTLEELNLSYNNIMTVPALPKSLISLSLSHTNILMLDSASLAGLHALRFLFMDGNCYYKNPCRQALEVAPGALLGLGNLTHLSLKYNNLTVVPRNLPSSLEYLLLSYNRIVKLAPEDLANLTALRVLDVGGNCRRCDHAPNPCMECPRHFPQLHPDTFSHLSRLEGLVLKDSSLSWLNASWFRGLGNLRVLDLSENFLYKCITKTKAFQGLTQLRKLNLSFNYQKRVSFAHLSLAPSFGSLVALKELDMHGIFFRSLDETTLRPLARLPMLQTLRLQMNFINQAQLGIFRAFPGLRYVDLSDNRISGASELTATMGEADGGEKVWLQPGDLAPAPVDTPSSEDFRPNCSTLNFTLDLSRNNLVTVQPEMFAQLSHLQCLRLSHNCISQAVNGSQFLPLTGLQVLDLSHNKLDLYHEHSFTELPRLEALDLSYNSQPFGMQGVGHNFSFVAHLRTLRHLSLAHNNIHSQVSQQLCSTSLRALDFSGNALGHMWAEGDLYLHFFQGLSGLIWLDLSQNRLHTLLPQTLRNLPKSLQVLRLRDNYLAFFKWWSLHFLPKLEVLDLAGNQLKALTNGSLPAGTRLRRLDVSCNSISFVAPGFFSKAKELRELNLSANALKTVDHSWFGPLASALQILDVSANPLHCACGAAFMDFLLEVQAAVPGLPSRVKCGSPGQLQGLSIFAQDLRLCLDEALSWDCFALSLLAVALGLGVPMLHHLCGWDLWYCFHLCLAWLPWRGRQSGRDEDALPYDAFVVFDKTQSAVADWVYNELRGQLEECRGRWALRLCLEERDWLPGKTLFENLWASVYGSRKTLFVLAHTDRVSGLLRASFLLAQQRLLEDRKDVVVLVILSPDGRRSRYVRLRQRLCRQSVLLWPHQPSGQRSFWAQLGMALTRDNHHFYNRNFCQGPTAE
In short: (§1)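 Read-out is SEAP colour from HEK-Blue Detection medium after 22 h at 37 °C, converted to percent inhibition between agonist-plus-DMSO and reference-inhibitor wells. Receptor-overexpressing HEK-Blue cells received compound over 0.05 nM–50 μM for 30 min before agonist: gardiquimod 7.5 μM for TLR7, R848 15.9 μM for TLR8, ODN2006 5 nM for TLR9.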

human TLR7 = target: T2, human TLR7 (Homo sapiens, UniProt Q9NYK1); assay: TLR7 inhibition reporter assay (HEK-Blue cells, secreted embryonic alkaline phosphatase reporter); settings: HEK-Blue cells overexpressing human TLR7, stimulated with gardiquimod 7.5 μM; read-out: TLR 7 IC50
T2 construct: host or cells: HEK-Blue cells (HEK293-derived reporter line)
T2 sequence (Q9NYK1 27-1049): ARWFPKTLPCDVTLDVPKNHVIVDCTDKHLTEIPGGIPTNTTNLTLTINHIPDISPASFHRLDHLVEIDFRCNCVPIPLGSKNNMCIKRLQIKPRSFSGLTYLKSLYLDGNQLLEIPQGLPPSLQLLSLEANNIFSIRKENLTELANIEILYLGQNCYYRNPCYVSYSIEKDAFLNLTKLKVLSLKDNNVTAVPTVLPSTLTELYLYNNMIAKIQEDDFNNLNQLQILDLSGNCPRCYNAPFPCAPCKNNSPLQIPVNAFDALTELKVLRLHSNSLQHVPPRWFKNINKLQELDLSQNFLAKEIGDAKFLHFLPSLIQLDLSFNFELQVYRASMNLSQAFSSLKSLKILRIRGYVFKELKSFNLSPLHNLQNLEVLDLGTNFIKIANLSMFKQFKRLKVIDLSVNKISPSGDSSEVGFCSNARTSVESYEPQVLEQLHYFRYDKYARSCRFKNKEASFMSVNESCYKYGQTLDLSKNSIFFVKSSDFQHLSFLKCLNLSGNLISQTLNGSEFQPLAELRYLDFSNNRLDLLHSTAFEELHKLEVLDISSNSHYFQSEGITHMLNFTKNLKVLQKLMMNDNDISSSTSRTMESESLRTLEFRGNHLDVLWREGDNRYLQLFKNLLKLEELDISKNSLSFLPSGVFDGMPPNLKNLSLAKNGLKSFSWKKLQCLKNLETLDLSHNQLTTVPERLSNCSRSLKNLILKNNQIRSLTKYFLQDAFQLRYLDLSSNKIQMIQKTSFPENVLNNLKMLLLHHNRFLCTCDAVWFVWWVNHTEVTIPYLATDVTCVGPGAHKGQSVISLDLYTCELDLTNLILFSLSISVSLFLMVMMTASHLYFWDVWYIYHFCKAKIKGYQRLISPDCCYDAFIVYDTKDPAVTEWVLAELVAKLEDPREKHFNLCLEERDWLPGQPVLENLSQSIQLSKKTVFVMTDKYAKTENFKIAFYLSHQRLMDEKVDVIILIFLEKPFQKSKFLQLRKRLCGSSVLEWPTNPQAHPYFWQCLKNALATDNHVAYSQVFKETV
In short: as §1

human TLR8 = target: T3, human TLR8 (Homo sapiens, UniProt Q9NR97); assay: TLR8 inhibition reporter assay (HEK-Blue cells, secreted embryonic alkaline phosphatase reporter); settings: HEK-Blue cells overexpressing human TLR8, stimulated with R848 15.9 μM; read-out: TLR 8 IC50
T3 construct: host or cells: HEK-Blue cells (HEK293-derived reporter line)
T3 sequence (Q9NR97 27-1041): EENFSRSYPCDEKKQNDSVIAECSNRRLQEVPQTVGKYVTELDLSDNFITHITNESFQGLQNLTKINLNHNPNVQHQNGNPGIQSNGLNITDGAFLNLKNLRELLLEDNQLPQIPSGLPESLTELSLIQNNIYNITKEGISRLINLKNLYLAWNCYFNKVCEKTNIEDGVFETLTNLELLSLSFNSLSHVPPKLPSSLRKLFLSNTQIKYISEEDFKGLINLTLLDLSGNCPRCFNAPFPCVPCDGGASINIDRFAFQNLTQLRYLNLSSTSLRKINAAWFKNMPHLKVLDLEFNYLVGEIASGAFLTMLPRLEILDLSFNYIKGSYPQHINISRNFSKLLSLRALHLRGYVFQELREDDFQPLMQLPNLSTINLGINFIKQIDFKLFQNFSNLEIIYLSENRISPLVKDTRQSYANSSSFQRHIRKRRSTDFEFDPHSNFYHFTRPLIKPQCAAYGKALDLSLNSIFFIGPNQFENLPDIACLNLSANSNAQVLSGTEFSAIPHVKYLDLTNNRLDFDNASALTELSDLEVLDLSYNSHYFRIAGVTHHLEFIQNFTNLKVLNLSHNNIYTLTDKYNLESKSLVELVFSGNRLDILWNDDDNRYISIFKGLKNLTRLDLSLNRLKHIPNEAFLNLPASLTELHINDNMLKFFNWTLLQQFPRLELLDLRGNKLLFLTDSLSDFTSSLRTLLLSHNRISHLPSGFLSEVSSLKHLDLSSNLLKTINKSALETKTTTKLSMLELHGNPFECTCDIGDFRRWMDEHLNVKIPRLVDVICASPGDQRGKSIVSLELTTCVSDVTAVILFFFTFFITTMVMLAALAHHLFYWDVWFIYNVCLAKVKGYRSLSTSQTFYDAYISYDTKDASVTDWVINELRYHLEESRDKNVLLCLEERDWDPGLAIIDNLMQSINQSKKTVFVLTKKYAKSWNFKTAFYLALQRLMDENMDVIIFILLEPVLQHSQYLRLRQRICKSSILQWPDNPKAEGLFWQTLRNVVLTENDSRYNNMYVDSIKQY
In short: as §1

[1] = HEK-Blue cells overexpressing human TLR9, stimulated with ODN2006 5 nM, 22 hour incubation, reporter readout
[2] = HEK-Blue cells overexpressing human TLR9, stimulated with ODN2006 5 nM, read-out: TLR 9 IC50

Structure (SMILES) | IC50 (human TLR9; [1]) | IC50 (human TLR9; [2]) | IC50 (human TLR7) | IC50 (human TLR8) | IC50 (human TLR9)
CC(C)N1C2CCC1CC(N1CCC(c3cc(F)c4nc(-c5ccc(S(C)(=O)=O)cc5)n(C)c4c3)CC1)C2 (single isomer, unassigned) [Example 107, 4-fluoro-6-(1-(8-isopropyl-8-azabicyclo[3.2.1]octan-3-yl)piperidin-4-yl)-1-methyl-2-(4-(methylsulfonyl)phenyl)-1H-benzo[d]imidazole] | 270 nM | 269 nM | 5800 nM | > 50000 nM | –
Cc1cc(-c2cc(F)c(CN3CCC(N4CCCC4)CC3)c(F)c2)cc2c1nc(-c1ccc(S(C)(=O)=O)cc1)n2C [Example 391, 6-(3,5-difluoro-4-((4-(pyrrolidin-1-yl)piperidin-1-yl)methyl)phenyl)-1,4-dimethyl-2-(4-(methylsulfonyl)phenyl)-1H-benzo[d]imidazole] | 180 nM | 178 nM | 2100 nM | 11700 nM | –
Cc1cc(-c2ccc(CN3CC4(C3)CN(C(C)C)C4)cc2)cc2c1nc(-c1ccc(S(C)(=O)=O)cc1)n2C [Example 399, 6-(4-((6-isopropyl-2,6-diazaspiro[3.3]heptan-2-yl)methyl)phenyl)-1,4-dimethyl-2-(4-(methylsulfonyl)phenyl)-1H-benzo[d]imidazole] | 97 nM | 97 nM | 1000 nM | 2700 nM | –
Cn1c(-c2ccc(S(C)(=O)=O)cc2)nc2cc(C3CCN(C4CC5CCC(C4)N5C4CCC4)CC3)cc(F)c21 (single isomer, unassigned) [Example 216, 5-(1-(8-cyclobutyl-8-azabicyclo[3.2.1]octan-3-yl)piperidin-4-yl)-7-fluoro-1-methyl-2-(4-(methylsulfonyl)phenyl)-1H-benzo[d]imidazole] | – | 269 nM | 23200 nM | > 50000 nM | 270 nM
Cn1c(-c2ccc(S(C)(=O)=O)cc2)nc2ccc(C3CCN(C4CCN(C5CC5)CC4)CC3)c(F)c21 [Example 260, 6-(1′-cyclopropyl-[1,4′-bipiperidin]-4-yl)-7-fluoro-1-methyl-2-(4-(methylsulfonyl)phenyl)-1H-benzo[d]imidazole] | – | 660 nM | 21500 nM | > 50000 nM | 660 nM

More lines, in order of falling IC50 (human TLR9; [2]), values ahead:

IC50 (human TLR9; [1]) | IC50 (human TLR9; [2]) | IC50 (human TLR7) | IC50 (human TLR8) | IC50 (human TLR9) | Structure (SMILES)
560 nM | 563 nM | > 50000 nM | 5700 nM | – | Cc1cc(-c2ccc(CN3CCC(N(C)C4CC4)CC3)c(F)c2)cc2c1nc(-c1ccc(S(C)(=O)=O)cc1)n2C [Example 394, N-cyclopropyl-1-(4-(1,4-dimethyl-2-(4-(methylsulfonyl)phenyl)-1H-benzo[d]imidazol-6-yl)-2-fluorobenzyl)-N-methylpiperidin-4-amine]
– | 176 nM | 12000 nM | 21500 nM | 180 nM | Cn1c(-c2ccc(S(C)(=O)=O)cc2)nc2ccc(C3CCN(C4CC5CCC(C4)N5CC4CC4)CC3)c(F)c21 (centres unmarked) [Example 269, 6-(1-(8-(cyclopropylmethyl)-8-azabicyclo[3.2.1]octan-3-yl)piperidin-4-yl)-7-fluoro-1-methyl-2-(4-(methylsulfonyl)phenyl)-1H-benzo[d]imidazole]
– | 140 nM | 5600 nM | 48700 nM | 140 nM | Cn1c(-c2ccc(S(C)(=O)=O)cc2)nc2cc(C3CCN(C4CC5CCC(C4)N5CC4CC4)CC3)cc(F)c21 (centres unmarked) [Example 218, 5-(1-(8-(cyclopropylmethyl)-8-azabicyclo[3.2.1]octan-3-yl)piperidin-4-yl)-7-fluoro-1-methyl-2-(4-(methylsulfonyl)phenyl)-1H-benzo[d]imidazole]
– | 124 nM | 7000 nM | > 50000 nM | 120 nM | COCCN1CCC(N2CCC(c3cc(F)c4nc(-c5ccc(S(C)(=O)=O)cc5)n(C)c4c3)CC2)CC1 [Example 281, 4-fluoro-6-(1′-(2-methoxyethyl)-[1,4′-bipiperidin]-4-yl)-1-methyl-2-(4-(methylsulfonyl)phenyl)-1H-benzo[d]imidazole]
– | 78 nM | > 50000 nM | > 50000 nM | 78 nM | CC(C)CN1C2CCC1CC(N1CCC(c3cc4nc(-c5ccc(S(C)(=O)=O)cc5)n(C)c4cc3F)CC1)C2 (centres unmarked) [Example 248, 6-fluoro-5-(1-(8-isobutyl-8-azabicyclo[3.2.1]octan-3-yl)piperidin-4-yl)-1-methyl-2-(4-(methylsulfonyl)phenyl)-1H-benzo[d]imidazole]
– | 32 nM | 21500 nM | > 50000 nM | 32 nM | Cn1c(-c2ccc(S(C)(=O)=O)cc2)nc2cc(C3CCN(C4CC5CCC(C4)N5CC4CC4)CC3)c(F)cc21 (single isomer, unassigned) [Example 249, 5-(1-(8-(cyclopropylmethyl)-8-azabicyclo[3.2.1]octan-3-yl)piperidin-4-yl)-6-fluoro-1-methyl-2-(4-(methylsulfonyl)phenyl)-1H-benzo[d]imidazole]
